Patent publication US20250230226A1, “PLXDC1/PLXDC2 ACTIVATORS AND THEIR USE IN THE TREATMENT OF BLOOD VESSEL DISORDERS” (THE REGENTS OF THE UNIVERSITY OF CALIFORNIA, priority 2019, published 2025)

System: LL/2 lung cancer tumor endothelial cells
Test: Lung LL2 ex vivo model of tumor angiogenesis
Type: cell-based, mouse
Settings: for 48 hrs (morphology observations): LL/2 tumor endothelial cells; for Cell death: drug treatment for two days, ratio of red area to total endothelial cell area
Method in brief: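 Live/dead imaging with FDA and PI, taken e.g. 48 h post-drug under fixed channel settings, measures treatment effects on endothelial cells sprouting from Lewis lung tumor explants. Explants were seeded in Matrigel drops and grown ~4 days in endothelial growth medium, 37 °C, 5% CO2, before dosing.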

[1] = Mus musculus, Endothelial cell, 48 h, read-out: Cell death

SMILES | 48 hrs (morphology observations) (40 μm) | Cell death (40 μm) | 48 hrs (morphology observations) (20 μm) | other results
CCCCOc1ccc(S(=O)(=O)c2cnc3ccc(C(=O)OCC)cc3c2N2CCCN(CCN3CCCC3)CC2)cc1 [Compound 182] | **** (100% of endothelial cells vesicularize in cell shape and look flattened in morphology (indicating disintegration of the cell body)) | 100% | – | –
O=S(=O)(c1ccc(OC(F)(F)F)cc1)c1cnc2ccc(OC(F)(F)F)cc2c1N1CCC(N2CCCCC2)CC1 [Compound 120] | – | – | 0 | cytotoxicity at 20 µM [1]: 5%
CNC(=O)c1ccc2ncc(S(=O)(=O)c3ccc(OC)cc3)c(N3CCC(N4CCCC4CO)CC3)c2c1 (stereo not shown) [Compound 336] | 0 | 0% | – | –
CCCCOc1ccc(S(=O)(=O)c2cnc3ccc(OC(F)(F)F)cc3c2N2CCS(=O)(=O)CC2)cc1 [Compound 198] | 0 | 30% | – | –
COc1ccc(S(=O)(=O)c2cnc3cc(OC)c(OC)cc3c2N2CCC(N3CCCC3CO)CC2)cc1 (stereo not shown) [Compound 322] | 0 | 30% | – | –
CCN(c1c(S(=O)(=O)c2ccc(OC)cc2)cnc2cc(OC)c(OC)cc12)C(C)C [Compound 294] | * (50% or less of cells vesicularize in cell shape) | 50% | – | –
CCCCCCCCCCOc1ccc(S(=O)(=O)c2cnc3ccc([S+](C)[O-])cc3c2N2CCC(N3CCC(O)(c4ccccc4)CC3)CC2)cc1 (stereo not shown) [Compound 270] | – | – | * (50% or less of cells vesicularize in cell shape) | –
COc1ccc(N2CCN(c3c(S(=O)(=O)c4ccc(OC)cc4)cnc4cc(OC)c(OC)cc34)CC2=O)cc1 [Compound 318] | 0 | 30% | – | –
COc1ccc(S(=O)(=O)c2cnc3cc(OC)c(OC)cc3c2N2CCC(c3ccc(CN4CCCC4)cc3)CC2)cc1 [Compound 312] | **** (100% of endothelial cells vesicularize in cell shape and look flattened in morphology (indicating disintegration of the cell body)) | 100% | – | –
CCCCCCCOc1ccc(S(=O)(=O)c2cnc3ccc([S+](C)[O-])cc3c2N2CCN(C3CCN(CC)CC3)CC2)cc1 (stereo not shown) [Compound 277] | – | – | – | cytotoxicity at 10 µM [1]: 60%
COc1ccc(S(=O)(=O)c2cnc3cc(OC)c(OC)cc3c2N2CCCN(c3nc4ccc(Cl)cc4s3)CC2)cc1 [Compound 327] | 0 | – | – | cytotoxicity at 40 µM [1]: 20%
CCCCOc1ccc(S(=O)(=O)c2cnc3ccc(C(=O)OCC)cc3c2N2CCC(N3CCCCCC3)CC2)cc1 [Compound 176] | *** (more than 50% but less than 100% of endothelial cells vesicularize in cell shape) | 100% | – | –
COc1ccc(S(=O)(=O)c2cnc3cc(OC)c(OC)cc3c2N2CCCN(CC3(O)CCCC3)CC2)cc1 [Compound 325] | * (50% or less of cells vesicularize in cell shape) | 30% | – | –
CCCCCCCOc1ccc(S(=O)(=O)c2cnc3ccc(SC)cc3c2N2CCC(N3CCN(C)CC3)CC2)cc1 [Compound 246] | – | – | *** (more than 50% but less than 100% of endothelial cells vesicularize in cell shape) | Cell death (20 μm): 95%
CCCCCCCCCCCCCCOc1ccc(S(=O)(=O)c2cnc3ccc([S+](C)[O-])cc3c2N2CCC(N3CCN(CCO)CC3)CC2)cc1F (stereo not shown) [Compound 365] | – | – | *** (more than 50% but less than 100% of endothelial cells vesicularize in cell shape) | Cell death (20 μm): 20%
COc1ccc(S(=O)(=O)c2cnc3cc(OC)c(OC)cc3c2N2CCC(=O)N(C)CC2)cc1 [Compound 328] | 0 | 30% | – | –
CCCCOc1ccc(S(=O)(=O)c2cnc3ccc(C(=O)OCC)cc3c2N2CCC(N3CCN(C)CC3)CC2)cc1 [Compound 172] | **** (100% of endothelial cells vesicularize in cell shape and look flattened in morphology (indicating disintegration of the cell body)) | 100% | – | –

SMILES | 48 hrs (morphology observations) (40 μm) | Cell death (40 μm) | 48 hrs (morphology observations) (20 μm) | other results
CCCCOc1ccc(S(=O)(=O)c2cnc3ccc([S+](C)[O-])cc3c2N2CCC(N3CCSCC3)CC2)cc1 (stereo not shown) [Compound 245] | 0 | 40% | – | –
CCOC(=O)c1ccc2ncc(S(=O)(=O)c3ccc(OC)cc3)c(-n3nnc4ccccc43)c2c1 [Compound 142] | – | – | **** (100% of endothelial cells vesicularize in cell shape and look flattened in morphology (indicating disintegration of the cell body)) | –
CCN(CC)CCN(CC)c1c(S(=O)(=O)c2ccc(OC)cc2)cnc2cc(OC)c(OC)cc12 [Compound 296] | 0 | 20% | – | –
COc1ccc(S(=O)(=O)c2cnc3ccc(OC(F)(F)F)cc3c2NCCO)cc1OC [Compound 73] | – | 10% | – | –
CCc1ccc(S(=O)(=O)c2cnc3ccc(OC(F)(F)F)cc3c2NN2CCCCC2)cc1 [Compound 105] | – | – | 0 | Cell death (20 μm): 0%
CCOC(=O)c1ccc(N2CCN(c3c(S(=O)(=O)c4ccc(OC)cc4)cnc4cc(OC)c(OC)cc34)CC2)cc1 [Compound 317] | 0 | 30% | – | –
COc1ccc(S(=O)(=O)c2cnc3cc(OC)c(OC)cc3c2N2CCC(N3CCCCC3)CC2)cc1 [Compound 320] | 0 | 30% | – | –
CCCCOc1ccc(S(=O)(=O)c2cnc3ccc(SC)cc3c2N2CCCN(C3CCSCC3)CC2)cc1 [Compound 358] | 0 | – | – | cytotoxicity at 40 µM [1]: 0%
CCCCCCCCCCCCOc1ccc(S(=O)(=O)c2cnc3ccc([S+](C)[O-])cc3c2N2CCC(N3CCC(N4CCC(O)CC4)CC3)CC2)cc1F (stereo not shown) [Compound 372] | – | – | – | Cell death (20 μm): 20%
CCCCCCCCCCCCOc1ccc(S(=O)(=O)c2cnc3ccc([S+](C)[O-])cc3c2N2CCC(N3CCC(N4CCCC(O)C4)CC3)CC2)cc1F (stereo not shown) [Compound 367] | – | – | 0 | cytotoxicity at 20 µM [1]: 5%
CCCCOc1ccc(S(=O)(=O)c2cnc3ccc(SC)cc3c2N2CCCN(C3CCS(=O)(=O)CC3)CC2)cc1 [Compound 359] | 0 | – | – | cytotoxicity at 40 µM [1]: 20%
CCCCCCCOc1ccc(S(=O)(=O)c2cnc3ccc(SC)cc3c2N2CCC(N3CCCN(C)CC3)CC2)cc1 [Compound 249] | – | – | *** (more than 50% but less than 100% of endothelial cells vesicularize in cell shape) | Cell death (20 μm): 60%
CCCCCCCCCCOc1ccc(S(=O)(=O)c2cnc3ccc([S+](C)[O-])cc3c2N2CCC(N3CCC(N4CCCCC4)CC3)CC2)cc1 (stereo not shown) [Compound 269] | – | – | **** (100% of endothelial cells vesicularize in cell shape and look flattened in morphology (indicating disintegration of the cell body)) | Cell death (20 μm): 100%
CCCCCCCCCCCCCCCCOc1ccc(S(=O)(=O)c2cnc3ccc([S+](C)[O-])cc3c2N2CCC(N3CCN(CCO)CC3)CC2)cc1 (stereo not shown) [Compound 376] | – | – | 0 | Cell death (20 μm): 10%
CCCCCCCOc1ccc(S(=O)(=O)c2cnc3ccc([S+](C)[O-])cc3c2N2CCN(CCN3CCCC3)CC2)cc1 (stereo not shown) [Compound 276] | – | – | *** (more than 50% but less than 100% of endothelial cells vesicularize in cell shape) | Cell death (20 μm): 100%
CCCCCCCOc1ccc(S(=O)(=O)c2cnc3ccc(SC)cc3c2N2CCC(N3CCCC(O)C3)CC2)cc1 (stereo not shown) [Compound 247] | – | – | *** (more than 50% but less than 100% of endothelial cells vesicularize in cell shape) | Cell death (20 μm): 60%
